# Measurements published in patent US11058680B2, “Combinations of opioid/TLR4 antagonists and acetaminophen for use in the treatment of emotional pain and insomnia” (Allodynic Threapeutics, LLC, priority 2016, dated 2021).
# Values joined by “and” are separate entries in the source; they are usually repeats but may differ in a detail not shown here. Equal values may be shown once.
# System: migraine attacks
# Assay: Naltrexone/acetaminophen open-label pilot study, acute treatment of migraine: headache pain (4-point scale; relief score ≤1, pain-free score = 0), associated symptoms, additional meds
# Type: in vivo, human
# Method: Sixteen unique patients were enrolled in an open phase pilot study for the acute treatment of migraine attacks, insomnia, and emotional pain. Of the sixteen patients, eleven were evaluated for one migraine attack, one for two attacks, two for four attacks, one for six attacks, and one for fourteen attacks. A total of forty-one […] treatments were evaluated. Patients received a single dose of one of the following treatment options:
# The majority of the patients remained in the clinic for observation for 2 hours after dosing. They completed headache diary assessments immediately before and after dosing at time points: 7, 15, and 30 minutes; and 1, 1.5, 2, 3, 6, 12, 24, and 48 hours. Headache pain was assessed on a 4-point scale (0=none; 1=mild; 2=moderate; 3=severe). The assessment of photophobia, phonophobia, nausea, and neck/shoulder pain was assessed as present or absent. The assessment of emotional pain was recorded on a 4-point scale (0=none, 1=mild, 2=moderate, 3=severe). The assessment of difficulty sleeping or falling asleep (insomnia) was assessed on a 4-point scale (0=none, 1=mild, 2=moderate, 3=severe) at baseline, for the night before treatment and for the following nights at 24, and 48 hours. Patients recorded side effects severity at each time point. Patients recorded the time of the first rescue medication dose and all additional headache medications used within 48 hours. Patients were required to stay awake to record their assessments in the first 2 hours, sleeping was permitted thereafter. While asleep, assessments were completed according to patients' best estimation. For data analysis, it was assumed that a migraine attack is a unique patient. Patients were asked to specify (yes or no answer) to whether they experienced emotional pain symptoms such as: hurt feelings, sadness, fear, or anger. Patients who replied positively to having emotional pain were asked to specify the cause into one of the following options: relationship, work/school, money/debt, health, or loss/grief.
# [1] = 12 h, NTX/APAP 2.25 mg/325 mg, NTX 2.25 mg
# [2] = 12 h, NTX/APAP 3.25 mg/325 mg, NTX 3.25 mg
# [3] = 12 h, NTX/APAP 5 mg/325 mg, NTX 5 mg
# [4] = 12 h, NTX/APAP […]325 mg, NTX 1.5 mg
# [5] = 12 h, naltrexone/acetaminophen 2.25 mg/325 mg (N=21), naltrexone 2.25 mg (N=9)
# [6] = 24 h, NTX/APAP 2.25 mg/325 mg, NTX 2.25 mg
# [7] = 24 h, NTX/APAP 3.25 mg/325 mg, NTX 3.25 mg
# [8] = 24 h, NTX/APAP 5 mg/325 mg, NTX 5 mg
# [9] = 24 h, NTX/APAP […]325 mg, NTX 1.5 mg
# [10] = 24 h, naltrexone/acetaminophen 2.25 mg/325 mg (N=21), naltrexone 2.25 mg (N=9)
# [11] = 48 h, NTX/APAP 2.25 mg/325 mg, NTX 2.25 mg
# [12] = 48 h, NTX/APAP 3.25 mg/325 mg, NTX 3.25 mg
# [13] = 48 h, NTX/APAP 5 mg/325 mg, NTX 5 mg
# [14] = 48 h, NTX/APAP […]325 mg, NTX 1.5 mg
# [15] = 48 h, naltrexone/acetaminophen 2.25 mg/325 mg (N=21), naltrexone 2.25 mg (N=9)
structure (smiles),measurement,setting,value
O=C1CC[C@@]2(O)[C@H]3Cc4ccc(O)c5c4[C@@]2(CCN3CC2CC2)[C@H]1O5 [naltrexone],Nausea-free,[1],9 (100) n (%)
same,Neck/shoulder pain-free,[1],9 (100) n (%)
same,Phonophobia-free,[1],9 (100) n (%)
same,Photophobia-free,[1],8 (88) n (%)
same,Additional meds taken,[2],0
same,Headache pain-free,[2],3 (100) n (%)
same,Headache pain-relief,[2],3 (100) n (%)
same,Most bothersome symptom-free,[2],3 (100) n (%)
same,Nausea-free,[2],3 (100) n (%)
same,Neck/shoulder pain-free,[2],3 (100) n (%)
same,Phonophobia-free,[2],3 (100) n (%)
same,Photophobia-free,[2],3 (100) n (%)
same,Additional meds taken,[3],0
same,Headache pain-free,[3],1 (100) n (%)
same,Headache pain-relief,[3],1 (100) n (%)
same,Most bothersome symptom-free,[3],1 (100) n (%)
same,Nausea-free,[3],1 (100) n (%)
same,Neck/shoulder pain-free,[3],1 (100) n (%)
same,Phonophobia-free,[3],1 (100) n (%)
same,Photophobia-free,[3],1 (100) n (%)
same,Additional meds taken,[4],0
same,Headache pain-free,[4],3 (100) n (%)
same,Headache pain-relief,[4],3 (100) n (%)
same,Most bothersome symptom-free,[4],3 (100) n (%)
same,Nausea-free,[4],3 (100) n (%)
same,Neck/shoulder pain-free,[4],3 (100) n (%)
same,Phonophobia-free,[4],3 (100) n (%)
same,Photophobia-free,[4],3 (100) n (%)
same,Additional meds taken,"12 h, combined doses",0
same,Headache pain-free,"12 h, combined doses",14 (88) n (%)
same,Headache pain-relief,"12 h, combined doses",16 (100) n (%)
same,Most bothersome symptom-free,"12 h, combined doses",16 (100) n (%)
same,Nausea-free,"12 h, combined doses",16 (100) n (%)
same,Neck/shoulder pain-free,"12 h, combined doses",16 (100) n (%)
same,Phonophobia-free,"12 h, combined doses",16 (100) n (%)
same,Photophobia-free,"12 h, combined doses",15 (94) n (%)
same,Headache pain-free,"12 h, naltrexone 1.5 mg (N=3)",100%
same,Headache pain-free,[5],77% and 100%
same,Headache pain-relief,[5],100%
same,Most bothersome symptom-free,[5],100%
same,Headache pain-free,"12 h, naltrexone/acetaminophen 3.25 mg/325 mg (N=3), naltrexone 3.25 mg (N=3)",100%
same,Additional meds taken,[6],0
same,Headache pain-free,[6],8 (88) n (%)
same,Headache pain-relief,[6],9 (100) n (%)
same,Most bothersome symptom-free,[6],9 (100) n (%)
same,Nausea-free,[6],9 (100) n (%)
same,Neck/shoulder pain-free,[6],9 (100) n (%)
same,Phonophobia-free,[6],9 (100) n (%)
same,Photophobia-free,[6],9 (100) n (%)
same,Additional meds taken,[7],0
same,Headache pain-free,[7],3 (100) n (%)
same,Headache pain-relief,[7],3 (100) n (%)
same,Most bothersome symptom-free,[7],3 (100) n (%)
same,Nausea-free,[7],3 (100) n (%)
same,Neck/shoulder pain-free,[7],3 (100) n (%)
same,Phonophobia-free,[7],3 (100) n (%)
same,Photophobia-free,[7],3 (100) n (%)
same,Additional meds taken,[8],0
same,Headache pain-free,[8],1 (100) n (%)
same,Headache pain-relief,[8],1 (100) n (%)
same,Most bothersome symptom-free,[8],1 (100) n (%)
same,Nausea-free,[8],1 (100) n (%)
same,Neck/shoulder pain-free,[8],1 (100) n (%)
same,Phonophobia-free,[8],1 (100) n (%)
same,Photophobia-free,[8],1 (100) n (%)
same,Additional meds taken,[9],0
same,Headache pain-free,[9],3 (100) n (%)
same,Headache pain-relief,[9],3 (100) n (%)
same,Most bothersome symptom-free,[9],3 (100) n (%)
same,Nausea-free,[9],3 (100) n (%)
same,Neck/shoulder pain-free,[9],3 (100) n (%)
same,Phonophobia-free,[9],3 (100) n (%)
same,Photophobia-free,[9],3 (100) n (%)
same,Additional meds taken,"24 h, combined doses",0
same,Headache pain-free,"24 h, combined doses",15 (94) n (%)
same,Headache pain-relief,"24 h, combined doses",16 (100) n (%)
same,Most bothersome symptom-free,"24 h, combined doses",16 (100) n (%)
same,Nausea-free,"24 h, combined doses",16 (100) n (%)
same,Neck/shoulder pain-free,"24 h, combined doses",16 (100) n (%)
same,Phonophobia-free,"24 h, combined doses",16 (100) n (%)
same,Photophobia-free,"24 h, combined doses",16 (100) n (%)
same,Headache pain-free,"24 h, naltrexone 1.5 mg (N=3)",100%
same,Headache pain-free,[10],88% and 100%
same,Headache pain-relief,[10],100%
same,Most bothersome symptom-free,[10],100%
same,Headache pain-free,"24 h, naltrexone/acetaminophen 3.25 mg/325 mg (N=3), naltrexone 3.25 mg (N=3)",100%
same,Additional meds taken,[11],0 (0)
same,Headache pain-free,[11],9 (100) n (%)
same,Headache pain-relief,[11],9 (100) n (%)
same,Most bothersome symptom-free,[11],9 (100) n (%)
same,Nausea-free,[11],9 (100) n (%)
same,Neck/shoulder pain-free,[11],9 (100) n (%)
same,Phonophobia-free,[11],9 (100) n (%)
same,Photophobia-free,[11],9 (100) n (%)
same,Additional meds taken,[12],0
same,Headache pain-free,[12],3 (100) n (%)
same,Headache pain-relief,[12],3 (100) n (%)
same,Most bothersome symptom-free,[12],3 (100) n (%)
same,Nausea-free,[12],3 (100) n (%)
same,Neck/shoulder pain-free,[12],3 (100) n (%)
same,Phonophobia-free,[12],3 (100) n (%)
same,Photophobia-free,[12],3 (100) n (%)
same,Additional meds taken,[13],1
same,Headache pain-free,[13],1 (100) n (%)
same,Headache pain-relief,[13],1 (100) n (%)
same,Most bothersome symptom-free,[13],1 (100) n (%)
same,Nausea-free,[13],1 (100) n (%)
same,Neck/shoulder pain-free,[13],1 (100) n (%)
same,Phonophobia-free,[13],1 (100) n (%)
same,Photophobia-free,[13],1 (100) n (%)
same,Additional meds taken,[14],0
same,Headache pain-free,[14],2 (66) n (%)
same,Headache pain-relief,[14],2 (66) n (%)
same,Most bothersome symptom-free,[14],2 (66) n (%)
same,Nausea-free,[14],2 (66) n (%)
same,Neck/shoulder pain-free,[14],3 (100) n (%)
same,Phonophobia-free,[14],3 (100) n (%)
same,Photophobia-free,[14],2 (66) n (%)
same,Additional meds taken,"48 h, combined doses",1
same,Headache pain-free,"48 h, combined doses",15 (94) n (%)
same,Headache pain-relief,"48 h, combined doses",15 (94) n (%)
same,Most bothersome symptom-free,"48 h, combined doses",15 (94) n (%)
same,Nausea-free,"48 h, combined doses",15 (94) n (%)
same,Neck/shoulder pain-free,"48 h, combined doses",16 (100) n (%)
same,Phonophobia-free,"48 h, combined doses",16 (100) n (%)
same,Photophobia-free,"48 h, combined doses",15 (94) n (%)
same,Headache pain-free,"48 h, naltrexone 1.5 mg (N=3)",100%
same,Headache pain-free,[15],100%
same,Headache pain-relief,[15],100%
same,Most bothersome symptom-free,[15],100%
same,Headache pain-free,"48 h, naltrexone/acetaminophen 3.25 mg/325 mg (N=3), naltrexone 3.25 mg (N=3)",100%
same,Headache pain-free,"from 90 minutes to 48 hours, naltrexone alone, all dosages (1.5, 2.25, 3.25, 5 mg)",100%
